In ChEMBL document CHEMBL1132838, “Determination of the relative and absolute stereochemistry of a potent and alpha1A-selective adrenoceptor antagonist” (Bioorg Med Chem Lett, 2000):

Key:
[1] = molecular target: T1, Alpha-1B adrenergic receptor (Homo sapiens, UniProt P35368); experiment: Tested for binding affinity against recombinant human Alpha-1B adrenergic receptor using [125I]HEAT in competition binding assay
T1 sequence (P35368 whole entry): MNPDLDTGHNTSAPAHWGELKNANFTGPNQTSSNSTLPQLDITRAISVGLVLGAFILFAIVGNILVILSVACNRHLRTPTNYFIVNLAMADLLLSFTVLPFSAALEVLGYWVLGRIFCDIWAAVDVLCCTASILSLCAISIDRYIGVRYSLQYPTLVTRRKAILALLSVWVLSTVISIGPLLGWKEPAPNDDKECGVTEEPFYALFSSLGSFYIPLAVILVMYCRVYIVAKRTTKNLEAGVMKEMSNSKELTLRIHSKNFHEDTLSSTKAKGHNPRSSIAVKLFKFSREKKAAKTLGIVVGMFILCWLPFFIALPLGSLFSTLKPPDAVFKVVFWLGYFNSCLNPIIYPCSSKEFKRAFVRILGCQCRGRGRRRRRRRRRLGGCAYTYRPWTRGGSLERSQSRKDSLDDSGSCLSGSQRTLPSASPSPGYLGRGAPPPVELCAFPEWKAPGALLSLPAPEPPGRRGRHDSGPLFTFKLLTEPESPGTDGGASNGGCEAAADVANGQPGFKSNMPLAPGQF

[2] = molecular target: T2, Alpha-1D adrenergic receptor (Homo sapiens, UniProt P25100); experiment: Tested for binding affinity against recombinant human Alpha-1D adrenergic receptor using [125I]-HEAT in competition binding assay
T2 sequence (P25100 whole entry): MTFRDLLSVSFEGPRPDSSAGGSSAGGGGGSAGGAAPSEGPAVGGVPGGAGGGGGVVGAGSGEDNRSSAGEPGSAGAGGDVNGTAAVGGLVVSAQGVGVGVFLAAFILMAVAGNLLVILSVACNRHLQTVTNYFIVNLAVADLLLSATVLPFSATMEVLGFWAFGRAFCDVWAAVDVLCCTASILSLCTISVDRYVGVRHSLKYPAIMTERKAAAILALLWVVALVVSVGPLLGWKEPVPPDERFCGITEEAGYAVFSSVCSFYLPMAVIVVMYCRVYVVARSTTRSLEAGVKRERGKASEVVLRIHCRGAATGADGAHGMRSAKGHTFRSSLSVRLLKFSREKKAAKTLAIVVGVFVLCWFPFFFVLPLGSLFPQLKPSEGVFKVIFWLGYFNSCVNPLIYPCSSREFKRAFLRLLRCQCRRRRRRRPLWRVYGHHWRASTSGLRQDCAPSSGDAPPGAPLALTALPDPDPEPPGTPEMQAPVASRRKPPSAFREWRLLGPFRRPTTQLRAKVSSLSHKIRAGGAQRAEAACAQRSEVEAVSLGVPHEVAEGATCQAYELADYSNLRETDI

Row | SMILES | Ki [1] [nM] | Ki [2] [nM]
1 | C[C@@H]1OC(=O)N(C(=O)NCCCN2CCC(c3ccc(F)cc3)CC2)[C@@H]1c1ccc(F)c(F)c1 | 76 | 
2 | C[C@H]1OC(=O)N(C(=O)NCCCN2CCC(c3ccc(F)cc3)CC2)[C@@H]1c1ccc(F)c(F)c1 | 74 | 193
3 | C[C@H]1OC(=O)N(C(=O)NCCCN2CCC(c3ccc(F)cc3)CC2)[C@H]1c1ccc(F)c(F)c1 | 48 | 92
